Measurements: US20250129430A1, “HIGH ATP-AFFINITY PROTEIN AS THERAPEUTIC TARGET FOR INTRACTABLE CANCER MOLECULAR SUBTYPES AND INHIBITOR THEREOF” (VeraVerse Co., Ltd., priority 2021, published 2025)

What was measured:
Type in all cases: cell-based, human
SNU1 = experiment: Cell viability drug screen, 12-point dose-response AUC; conditions: SNU1 cells, 72 hours
How it was run: (§1)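 Twelve half-log concentrations per compound were tested on gastric cancer cells with an EMT phenotype (5×10^3/well, dosed 24 h post-seeding). Viability after 72 h was quantified via luminescence relative to 0.5% DMSO, and repeats were averaged.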

SK4 = experiment: as above; conditions: 72 hours; for Average Area Under the Viability Curve (AUC), AUC norm value: SK4 cells (SEM subtype)
How it was run: as §1

NCC24 = experiment: as above; conditions: NCC24 cells, 72 hours
How it was run: as §1

SNU484 = experiment: as above; conditions: 72 hours; for Average Area Under the Viability Curve (AUC), AUC norm value: SNU484 cells (SEM subtype)
How it was run: as §1

Hs746T = experiment: as above; conditions: 72 hours; for Average Area Under the Viability Curve (AUC), AUC norm value: Hs746T cells (SEM subtype)
How it was run: as §1

SNU1967 = experiment: as above; conditions: SNU1967 cells, 72 hours
How it was run: as §1

MKN74 = experiment: as above; conditions: MKN74 cells, 72 hours
How it was run: (§2)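 Gastric cancer lines seeded 5×10^3 cells/well, dosed after 24 h with half-log 12-point compound dilutions (DMSO 0.5% control), then 72 h at 37 °C. Viability by luminescence, normalized to DMSO; AUC by trapezoidal method, averaged over repeats.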

SNU16 = experiment: as above; conditions: SNU16 cells, 72 hours
How it was run: as §1

SNU719 = experiment: as above; conditions: SNU719 cells, 72 hours
How it was run: as §2

MKN1 = experiment: as above; conditions: MKN1 cells, 72 hours
How it was run: as §1

SNU216 = experiment: as above; conditions: 72 hours; for Average Area Under the Viability Curve (AUC), AUC norm value: SNU216 cells (non-SEM subtype)
How it was run: as §2

YCC3 = experiment: as above; conditions: YCC3 cells, 72 hours
How it was run: as §1

SNU1750 = experiment: as above; conditions: 72 hours; for Average Area Under the Viability Curve (AUC), AUC norm value: SNU1750 cells (SEM subtype)
How it was run: as §1

NCC59 = experiment: as above; conditions: NCC59 cells, 72 hours
How it was run: as §1

YCC11 = experiment: as above; conditions: 72 hours; for Average Area Under the Viability Curve (AUC), AUC norm value: YCC11 cells (SEM subtype)
How it was run: as §1

NCI_N87 = experiment: as above; conditions: NCI_N87 cells, 72 hours
How it was run: as §1

MKN45 = experiment: as above; conditions: 72 hours; for Average Area Under the Viability Curve (AUC), AUC norm value: MKN45 cells (non-SEM subtype)
How it was run: as §2

OCUM1 = experiment: as above; conditions: OCUM1 cells, 72 hours
How it was run: as §1

SNU601 = experiment: as above; conditions: SNU601 cells, 72 hours
How it was run: as §1

MKN28 = experiment: as above; conditions: MKN28 cells, 72 hours
How it was run: as §1

NCC19 = experiment: as above; conditions: NCC19 cells, 72 hours
How it was run: as §1

KATO3 = experiment: as above; conditions: KATO3 cells, 72 hours
How it was run: as §1

NCC20 = experiment: as above; conditions: NCC20 cells, 72 hours
How it was run: as §1

SNU638 = experiment: as above; conditions: SNU638 cells, 72 hours
How it was run: as §1

AGS = experiment: as above; conditions: 72 hours; for Average Area Under the Viability Curve (AUC), AUC norm value: AGS cells (non-SEM subtype)
How it was run: as §2

SNU668 = experiment: as above; conditions: 72 hours; for Average Area Under the Viability Curve (AUC), AUC norm value: SNU668 cells (SEM subtype)
How it was run: as §1

YCC2 = experiment: as above; conditions: YCC2 cells, 72 hours
How it was run: as §1

SNU620 = experiment: as above; conditions: SNU620 cells, 72 hours
How it was run: as §1

FU97 = experiment: as above; set-up: Average Area Under the Viability Curve (AUC), AUC norm value: scale not given here; conditions: FU97 cells, 72 hours
How it was run: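 Trapezoidal AUC of a 12-point, DMSO-normalized dose-response curve. Luminescent viability was measured after 72 h of exposure at 37° C to half-log serial dilutions (0.5% DMSO control), dosed 24 h after plating FU97 cells at 5×10^3 per well.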

[1] = tested on: non-SEM-type gastric cancer cell line; experiment: Cell viability drug screen, AUC summary over non-SEM-type lines; conditions: in the non-SEM-type gastric cancer cell line
[2] = tested on: SEM-type gastric cancer cell line; experiment: Cell viability drug screen, AUC summary over SEM-type lines
Experimental: An FDA-approved small-molecule pharmacological compound (#L1300) and an anticancer compound for research (#L2000) were purchased from Selecckchem and a 10 mM solution was prepared in DMSO. A total of 1,345 compounds were tested the cell viability of the seven EMT gastric cancer cell lines.
Cells cultured for cell-based drug assay were inoculated into a 96-well white optical plate (Corning) at 5×10^3 cells per well. After 24 hours after inoculation, a 2.5 MJT (primary screen) or a half-log 12-serial diluent (secondary screen) of the pharmacological compound contained in DMSO is added to the cells with a robot using a BioMek FXp liquid processor (Beckman) to add to the cells at 50 mM. The final drug concentration in the 5 ns range and the DMSO specification control (0.5%) were calculated. The cells were then further incubated at 37° C. in a 5% CO2 incubator for 72 hours prior to measuring cell viability using the extra-GLO assay kit (Promega). The luminescent properties were measured after 15 min incubation at room temperature using a plate stacker equipped with a plate stacker. The normalized viability for the DMSO-based control was measured to generate a cell line-specific 12-point dose-response curve for each pharmacological compound, and then the area under the curve (AUC) was calculated using a trapezoidal method.

In the case of `Cn1c(=O)n(-c2ccc(C(C)(C)C#N)cc2)c2c3cc(-c4cnc5ccccc5c4)ccc3ncc21` [BEZ235 (NVP-BEZ235), BEZ235], the “Average Area Under the Viability Curve (AUC), AUC norm value” (shortened to “Average Area Under the Viability Curve”) (SNU1) was −1.128, the “Average Area Under the Viability Curve” value (SK4) was −3.142 and the “Average Area Under the Viability Curve” value (NCC24) was 0.08486. The “Average Area Under the Viability Curve” value (SNU484) was 0, the “Average Area Under the Viability Curve” value (Hs746T) was −0.9926 and the “Average Area Under the Viability Curve” value (SNU1967) was −0.17. The “Average Area Under the Viability Curve” value (MKN74) was 0.02041, the “Average Area Under the Viability Curve” value (SNU16) was −0.9859 and the “Average Area Under the Viability Curve” value (SNU719) was 5.119. The “Average Area Under the Viability Curve” value (MKN1) was −0.845, the “Average Area Under the Viability Curve” value (SNU216) was −0.6351 and the “Average Area Under the Viability Curve” value (YCC3) was 0.9008. For the same compound, the “Average Area Under the Viability Curve” value (SNU1750) was −1.129, the “Average Area Under the Viability Curve” value (NCC59) was 2.997 and the “Average Area Under the Viability Curve” value (YCC11) was −2.698. For the same compound, the “Average Area Under the Viability Curve” value (NCI_N87) was 0.7505, the “Average Area Under the Viability Curve” value (MKN45) was 1.887 and the “Average Area Under the Viability Curve” value (OCUM1) was −0.3719. For the same compound, the “Average Area Under the Viability Curve” value (SNU601) was 2.66, the “Average Area Under the Viability Curve” value (MKN28) was 2.007 and the “Average Area Under the Viability Curve” value (NCC19) was 0.9022. The “Average Area Under the Viability Curve” value (KATO3) was 2.717, the “Average Area Under the Viability Curve” value (NCC20) was −1.542 and the “Average Area Under the Viability Curve” value (SNU638) was 0.8979. The “Average Area Under the Viability Curve” value (AGS) was −1.768, the “Average Area Under the Viability Curve” value (SNU668) was 1.258 and the “Average Area Under the Viability Curve” value (YCC2) was 0.6403. The “Average Area Under the Viability Curve” value (SNU620) was −0.6893, the “Average Area Under the Viability Curve” value (FU97) was −2.382 and the AUC value [1] was “high”. For the same compound, the “normalized viability AUC” value [2] was “negative”.

In the case of `COc1ncc(-c2ccc3nccc(-c4ccnnc4)c3c2)cc1NS(=O)(=O)c1ccc(F)cc1F` [GSK2126458], the “area under the viability curve (AUC), normalized” value (“area … normalized” for short) (SNU1; 12-point dose-response) was −0.6492, the “area … normalized” value (SK4; SK4 cells, 12-point dose-response) was −2.466 and the “area … normalized” value (NCC24; 12-point dose-response) was −1.197. For the same compound, the “area … normalized” value (SNU484; SNU484 cells, 12-point dose-response) was 0.4641, the “area … normalized” value (Hs746T; Hs746T cells, 12-point dose-response) was −0.063 and the “area … normalized” value (SNU1967; 12-point dose-response) was 1.044. For the same compound, the “area … normalized” value (MKN74; 12-point dose-response) was 0, the “area … normalized” value (SNU16; 12-point dose-response) was 0.6494 and the “area … normalized” value (SNU719; 12-point dose-response) was 5.211. The “area … normalized” value (MKN1; 12-point dose-response) was −1.1278, the “area … normalized” value (SNU216; SNU216 cells, 12-point dose-response) was −0.4775 and the “area … normalized” value (YCC3; 12-point dose-response) was 0.9745. For the same compound, the “area … normalized” value (SNU1750; SNU1750 cells, 12-point dose-response) was −0.5071, the “area … normalized” value (NCC59; 12-point dose-response) was 2.2975 and the “area … normalized” value (YCC11; YCC11 cells, 12-point dose-response) was −1.373. For the same compound, the “area … normalized” value (NCI_N87; 12-point dose-response) was −1.3463, the “area … normalized” value (MKN45; MKN45 cells, 12-point dose-response) was 0.05353 and the “area … normalized” value (OCUM1; 12-point dose-response) was 1.227. For the same compound, the “area … normalized” value (SNU601; 12-point dose-response) was 0.1047, the “area … normalized” value (MKN28; 12-point dose-response) was 0.15 and the “area … normalized” value (NCC19; 12-point dose-response) was 0.4665. For the same compound, the “area … normalized” value (KATO3; 12-point dose-response) was 3.911, the “area … normalized” value (NCC20; 12-point dose-response) was −1.107 and the “area … normalized” value (SNU638; 12-point dose-response) was 0.9531. The “area … normalized” value (AGS; AGS cells, 12-point dose-response) was −2.286, the “area … normalized” value (SNU668; SNU668 cells, 12-point dose-response) was 1.587 and the “area … normalized” value (YCC2; 12-point dose-response) was −0.9259. For the same compound, the “area … normalized” value (SNU620; 12-point dose-response) was −0.7945, the “area … normalized” value (FU97; 12-point dose-response) was −1.393 and the AUC value [1] was “high”. The “normalized viability AUC” value [2] was “negative”.

With `CCC[C@H](NC(=O)/C(C#N)=C/c1cccc(Br)n1)c1ccccc1` [WP1130] the “Average Area Under the Viability Curve” value (SNU1) was 1.527, the “Average Area Under the Viability Curve” value (SK4) was −0.08364 and the “Average Area Under the Viability Curve” value (NCC24) was 0.3475. The “Average Area Under the Viability Curve” value (SNU484) was −0.8971, the “Average Area Under the Viability Curve” value (Hs746T) was −0.3738 and the “Average Area Under the Viability Curve” value (SNU1967) was −0.7195. For the same compound, the “Average Area Under the Viability Curve” value (MKN74) was −0.1908, the “Average Area Under the Viability Curve” value (SNU16) was 0 and the “Average Area Under the Viability Curve” value (SNU719) was 1.245. For the same compound, the “Average Area Under the Viability Curve” value (MKN1) was −0.4264, the “Average Area Under the Viability Curve” value (SNU216) was 0.1101 and the “Average Area Under the Viability Curve” value (YCC3) was 0.8784. The “Average Area Under the Viability Curve” value (SNU1750) was −0.8602, the “Average Area Under the Viability Curve” value (NCC59) was 0.7588 and the “Average Area Under the Viability Curve” value (YCC11) was −0.2144. For the same compound, the “Average Area Under the Viability Curve” value (NCI_N87) was 2.159, the “Average Area Under the Viability Curve” value (MKN45) was 1.024 and the “Average Area Under the Viability Curve” value (OCUM1) was −0.652. For the same compound, the “Average Area Under the Viability Curve” value (SNU601) was 3.24, the “Average Area Under the Viability Curve” value (MKN28) was −0.04006 and the “Average Area Under the Viability Curve” value (NCC19) was 1.376. For the same compound, the “Average Area Under the Viability Curve” value (KATO3) was 1.454, the “Average Area Under the Viability Curve” value (NCC20) was −0.8247 and the “Average Area Under the Viability Curve” value (SNU638) was −0.3485. The “Average Area Under the Viability Curve” value (AGS) was −0.6997, the “Average Area Under the Viability Curve” value (SNU668) was 0.1607 and the “Average Area Under the Viability Curve” value (YCC2) was 0.94. The “Average Area Under the Viability Curve” value (SNU620) was 1.336, the “Average Area Under the Viability Curve” value (FU97) was −0.7929 and the AUC value [1] was “high”.
